From patent US20130029976A1, “PEST CONTROLLING COMPOSITION” (SUMITOMO CHEMICAL COMPANY, LIMITED, priority 2010, published 2013)

Test system: third instar larvae of Spodoptera litura
Assay: Test Example 1: cabbage leaf immersion test, insecticidal ratio
Assay type: in vivo
Settings: cabbage leaf immersed 60 seconds, 2 days after, three replications
Protocol: A flowable formulation containing 10.0% by weight of pyridalyl (trade name: Pleo® flowable, manufactured by Sumitomo Chemical Co., Ltd.) was diluted with water containing 0.02% by volume of a spreading agent (trade name: Sindain®, manufactured by Sumitomo Chemical Co., Ltd.) so as to adjust the concentration of pyridalyl to 12.5 ppm.
A flowable formulation containing 10.0% by weight of indoxacarb (trade name: Tornado® flowable, manufactured by DuPont) was diluted with water containing 0.02% by volume of a spreading agent (trade name: Sindain®, manufactured by Sumitomo Chemical Co., Ltd.) so as to adjust the concentration of indoxacarb to 6.25 ppm.
The water dilution of pyridalyl and the water dilution of indoxacarb were mixed in the same amount to prepare a test chemical solution.
A cabbage was planted in a pot having a volume of 860 ml and grown to the forth leaf stage. Each leaf of the cabbage seedling was cut off. One leaf of the cabbage was immersed in the test chemical solution for 60 seconds. After air-drying, the leaf was placed in a cup having a volume of 500 ml in which filter paper had been spread on the bottom. In the cup, 10 third instar larvae of Spodoptera litura were released (the inside of the cup containing the treated cabbage was regarded as the treated area). […]
An insecticidal ratio was calculated by correcting the results using the following equation. […]

| Structure (SMILES) | Insecticidal ratio (%) (active ingredient 3.13 ppm) | Insecticidal ratio (%) (active ingredient 6.25 ppm) |
| --- | --- | --- |
| COC(=O)N(C(=O)N1CO[C@@]2(C(=O)OC)Cc3cc(Cl)ccc3C2=N1)c1ccc(OC(F)(F)F)cc1 [Indoxacarb, methyl(4aS)-7-chloro-2,5-dihydro-2-[[(methoxycarbonyl)[4-(trifluoromethoxy)phenyl]amino]carbonyl]indeno[1,2-e] [1,3,4]oxadiazine-4a(3H)-carboxylate] | 16.7 |  |
| FC(F)(F)c1ccc(OCCCOc2c(Cl)cc(OCC=C(Cl)Cl)cc2Cl)nc1 [Pyridalyl, 2-[3-[2,6-dichloro-4-[(3,3-dichloro-2-propenyl)oxy]phenoxy]propoxy]-5-(trifluoromethyl)pyridine] |  | 10.0 |
